According to US11058653B2, “Compositions comprising desaminotyrosine and uses thereof to enhance type I interferon stimulation” (Washington University, priority 2016, dated 2021):
Entries after “also recorded” stand apart in the source; their conditions may differ.

Key:
[1] = tested on: influenza A/WSN/33 (rWSN) H1N1 virus; settings: mouse, in vivo
[2] = tested on: type I IFN response elements (ISREs); test: ISRE luciferase reporter metabolic screen (2fTGH-ISRE-CBG99 cell line); type: cell-based
Text: Therefore, a library of microbiome associated metabolites was screened for the ability to enhance type I IFN signaling.^21 A reported cell line that harbors multiple type I IFN response elements (ISREs) driving firefly luciferase was utilized.^22 Each metabolite was screened for the ability to enhance reporter activity in the background of type I IFN or polyIC (an inducer of type I IFN production) treatment (schematic FIG. 4A). Using this methodology, 11 metabolites were identified that increased reporter activity following polyIC co-stimulation (FIG. 4B) and 5 metabolites that increased ISRE reporter activity with type I IFN co-stimulation (FIG. 10).
Metabolites were screened using the 2fTGH-ISRE-CBG99 luciferase cell line.^22 The day before screening the reporter cells were plated at 3×10^4 cell/well in 96 well plates. […] Luciferase was measured at 14 hours post-treatment for IFN-β, and 24 hours post-treatment for poly(IC) using the […] […] Plates were read on a luminometer (1 second read time) using the CYTATION 5 (BioTek). For secondary validation, cells were treated with 1000 μM, 100 μM, 10 μM, and 1 μM of metabolite and 5 or 50 U/ml of IFN-β (PBL Assay Science) or 2.5 or […] of poly(IC) (Amersham Biosciences) and measured as above.

type I IFN activity = type: in vivo, mice; settings: after 2-week antibiotic course; desaminotyrosine orally plus polyIC injections vs polyIC alone
[3] = tested on: H1N1 influenza strain PR8; test: Influenza infection of mice, strain PR8; type: in vivo; settings: mice infected with PR8
Text: (§1) FIG. 19A, FIG. 19B, FIG. 19C, FIG. 19D, FIG. 19E, FIG. 19F, FIG. 19G, FIG. 19H, FIG. 19I, FIG. 19J, FIG. 19L, FIG. 19K, FIG. 19M, and FIG. 19N (FIG. 19A and FIG. 19B) Representative images of influenza H1N1 staining by polyclonal antibody on lung cross sections from wild-type (WT) (FIG. 19A) and Irgm1^−/− (FIG. 19B) mice 6 days postinfection (representative images from 5-6 mice per group from two experiments). Bar=200 μm. (FIG. 19C and FIG. 19D) Stool (FIG. 19C) and serum (FIG. 19D) desaminotyrosine levels measured by mass spectroscopy in wild-type mice mock or treated with two weeks of antibiotics and then treated with 200 mM desaminotyrosine in drinking water for one week (n=5-13 per group from two experiments). (FIG. 19E, FIG. 19F, FIG. 19G, and FIG. 19H) Kaplan-Meier survival analysis of nonantibiotic and antibiotic-treated wild-type mice given control or desaminotyrosine in drinking water and then infected with H1N1 influenza strains PR8 (FIG. 19E and FIG. 19F) or Cali/09 (FIG. 19G and FIG. 19H) (n=10 mice per group). *p<0.05 by Mantel-Cox test. (FIG. 19I) Kaplan-Meier survival analysis of wild-type mice treated with indicated antibiotic(s) and then infected with influenza (n=20 mice per group from two experiments). *p<0.05, **p<0.01, and ****p<0.0001 compared to mock treated infected mice by Mantel-Cox test with Bonferroni-corrected threshold. […]

[4] = tested on: H1N1 influenza strain California/09; test: Influenza infection of mice, strain California/09; type: in vivo; settings: mice infected with California/09
Text: as §1

[5] = tested on: bone marrow derived macrophages infected with Influenza H1N1; type: cell-based
[6] = tested on: type I IFN signaling in BMDMs; type: cell-based, mouse
epithelial proliferation = test: Crypt height and epithelial proliferation in mice; type: in vivo; settings: VNAM 2 weeks, then 200 mM desaminotyrosine in drinking water
Procedure: FIG. 13 depicts an experimental scheme of mice treated with VNAM for 2 weeks and then give +/−200 mM desaminotyrosine in the drinking water for 1 week. After 1 week, the mice were continued on +/−200 mM desaminotyrosine and then treated with +/−1 mg/kg polyIC intraperitoneally once per day for 4 days and then sacrificed 1 day later.
(FIG. 14A, FIG. 14B, FIG. 14C, and FIG. 14D) Representative images of the crypt height for control (FIG. 14A), polyIC (FIG. 14B), deasminotyrosine, (FIG. 14C), and desaminotyrosine+polyIC (FIG. 14D) treated mice. FIG. 14E depicts a graph quantifying the crypt height after the various treatments relative to the control treated mice.
To examine the effects of desaminotyrosine on epithelial proliferation, mice were treated with and without antibiotics for 2 weeks and then with or without desaminotyrosine for […] and with or without polyIC (FIG. 13).

[7] = tested on: dextran sodium sulfate (DSS) induced colitis; type: in vivo; settings: antibiotic treated mice, 2.5% DSS
[8] = Barrier function: 4 kD dextran (FD4) in serum after gavage; type: in vivo, mice; settings: VNAM 2 weeks then 200 mM desaminotyrosine 1 week in drinking water
Procedure: FIG. 17A depicts a graph quantifying the amount of damaged area following treatment with DSS +/−desaminotyrosine. FIG. 17B depicts a graph dextrain-FD4 measured in the serum of mice treated with VNAM for 2 weeks and then +/−200 mM of desaminotyrosine for 1 week in the drinking water. 4 kD Dextran was administered by gavage and serum collected 4 hours post-gavage.

| SMILES | influenza associated-mortality [1] | ISRE reporter activity (fold increase in luminescence), type I IFN signaling ([2]; with polyIC co-stimulation) | ISRE reporter activity (fold increase in luminescence), type I IFN signaling ([2]; with type I IFN (IFN-β) co-stimulation) | type I IFN activity in the serum (type I IFN activity) | protection (survival) [3] | protection (survival) [4] | influenza RNA in bone marrow derived macrophages ([5]; 24 hours pretreatment (100 μM), then infection MOI-2 48 hours, IFN/Ifnar-dependent) | ISG transcripts (Oas1, IP-10) after in vitro influenza infection ([5]; pretreated BMDMs, Ifnar-dependent) | polyIC and type I IFN expression of IP-10 ([6]; BMDMs from Mavs−/− mice) | IP-10 expression ([6]; BMDMs from Stat1−/− mice, polyIC or type I IFN with desaminotyrosine) | ISG transcript abundance (IP-10) ([6]; wild-type BMDMs, combined with either polyIC or type I IFN) | crypt height (epithelial proliferation) | epithelial proliferation (epithelial proliferation; alone) | response to DSS injury (epithelial proliferation, crypt preservation, damage) [7] | damaged area of the distal colon after DSS treatment ([7]; with desaminotyrosine (control mice ~90%)) [%] | barrier function (dextran-FD4 in serum 4 hours post-gavage) [8] | airway epithelial damage and apoptosis (H+E, cleaved caspase 3) [1] | desaminotyrosine mediated protection (survival) [1] | phenotypes associated with antibiotic treatment (morbidity and mortality) [1] | viral RNA in the lungs (matrix, qRT-PCR) [1] |
| --- | --- | --- | --- | --- | --- | --- | --- | --- | --- | --- | --- | --- | --- | --- | --- | --- | --- | --- | --- | --- |
| CN[C@H](CC(C)C)C(=O)N[C@H]1C(=O)N[C@@H](CC(N)=O)C(=O)N[C@H]2C(=O)N[C@H]3C(=O)N[C@H](C(=O)N[C@H](C(=O)O)c4cc(O)cc(O)c4-c4cc3ccc4O)[C@H](O)c3ccc(c(Cl)c3)Oc3cc2cc(c3O[C@@H]2O[C@H](CO)[C@@H](O)[C@H](O)[C@H]2O[C@H]2C[C@](C)(N)[C@H](O)[C@H](C)O2)Oc2ccc(cc2Cl)[C@H]1O [vancomycin, reference compound] | enhanced influenza associated-mortality | – | – | – | – | – | – | – | – | – | – | – | – | – | – | – | – | – | – | – |
| O=C(O)CCc1ccc(O)cc1 [desaminotyrosine, 3-(4-hydroxyphenyl)propanoic acid] | – | enhanced type I IFN signaling in a dose-dependent manner | enhanced type I IFN signaling in a dose-dependent manner | increased type I IFN activity in the serum | protected | protected | decreased influenza RNA; also recorded: depleted | increased ISG transcripts | still enhanced | not enhanced | increased | increased crypt height | increased; also recorded: stimulated epithelia proliferation in the small intestine alone | promoted epithelial profliferation and crypt preservation; also recorded: rescues DSS damage | ~8 | no effect on barrier function; also recorded: Not significant | greater airway epithelial damage and apoptosis were observed in control lungs | abolished | recused the phenotypes associated with antibiotic treatment | less viral RNA was found in the lungs |
| Cc1ncc([N+](=O)[O-])n1CCO [metronidazole, reference compound] | enhanced influenza associated-mortality | – | – | – | – | – | – | – | – | – | – | – | – | – | – | – | – | – | – | – |
